Assay results from ChEMBL document CHEMBL1143092, “Identification of novel benzimidazole series of potent and selective ORL1 antagonists” (Bioorg Med Chem Lett, 2008).

Key:
Nociceptin receptor [1] = target: T1, Nociceptin receptor (Homo sapiens, UniProt P41146); experiment: Displacement of [125I]Tyr14-NC from human ORL1 receptor expressed in CHO cell membrane; type: cell membranes
Nociceptin receptor [2] = target: T1, Nociceptin receptor; experiment: Antagonist activity at human ORL1 receptor expressed in CHO cell membrane by [35S]GTP-gamma-S binding assay; type: functional, cell membranes
Mu-type opioid receptor = Mu-type opioid receptor (Homo sapiens, UniProt P35372); experiment: Displacement of [3H]diprenorphin from human cloned mu opioid receptor expressed in CHO cell membrane; type: cell membranes
[3] = target: Kappa-type opioid receptor (Homo sapiens, UniProt P41145); experiment: Displacement of [3H]U-69593 from human cloned kappa opioid receptor expressed in CHO cell membrane; type: cell membranes
[4] = target: Delta-type opioid receptor (Homo sapiens, UniProt P41143); experiment: Displacement of [3H]naltrindole from human cloned delta opioid receptor expressed in CHO cell membrane; type: cell membranes
Liver microsomes = experiment: Metabolic stability in human liver microsomes; type: ADME, Microsome

Chain of Mu-type opioid receptor (P35372 whole entry): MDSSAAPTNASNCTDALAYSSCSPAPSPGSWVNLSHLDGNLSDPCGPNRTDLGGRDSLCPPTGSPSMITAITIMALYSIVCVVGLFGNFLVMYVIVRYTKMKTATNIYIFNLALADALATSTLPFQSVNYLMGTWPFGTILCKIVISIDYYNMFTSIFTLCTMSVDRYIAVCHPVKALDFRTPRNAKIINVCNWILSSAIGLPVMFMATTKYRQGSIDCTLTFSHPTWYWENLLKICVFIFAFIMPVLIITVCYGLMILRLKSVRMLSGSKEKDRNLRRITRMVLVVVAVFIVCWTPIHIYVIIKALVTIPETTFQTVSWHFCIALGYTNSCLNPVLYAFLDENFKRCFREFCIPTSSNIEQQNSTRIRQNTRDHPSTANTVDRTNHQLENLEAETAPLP
T1 sequence (P41146 whole entry): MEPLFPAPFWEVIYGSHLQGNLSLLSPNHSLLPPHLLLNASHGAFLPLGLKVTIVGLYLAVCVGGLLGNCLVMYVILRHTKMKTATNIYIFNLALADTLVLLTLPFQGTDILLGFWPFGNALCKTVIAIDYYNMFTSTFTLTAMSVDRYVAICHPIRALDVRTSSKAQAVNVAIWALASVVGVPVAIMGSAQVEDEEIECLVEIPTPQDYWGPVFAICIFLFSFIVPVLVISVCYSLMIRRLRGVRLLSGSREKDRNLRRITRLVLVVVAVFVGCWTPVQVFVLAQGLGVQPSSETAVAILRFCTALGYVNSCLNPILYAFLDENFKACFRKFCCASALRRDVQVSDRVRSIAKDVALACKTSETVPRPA
Chain of Kappa-type opioid receptor (P41145 whole entry): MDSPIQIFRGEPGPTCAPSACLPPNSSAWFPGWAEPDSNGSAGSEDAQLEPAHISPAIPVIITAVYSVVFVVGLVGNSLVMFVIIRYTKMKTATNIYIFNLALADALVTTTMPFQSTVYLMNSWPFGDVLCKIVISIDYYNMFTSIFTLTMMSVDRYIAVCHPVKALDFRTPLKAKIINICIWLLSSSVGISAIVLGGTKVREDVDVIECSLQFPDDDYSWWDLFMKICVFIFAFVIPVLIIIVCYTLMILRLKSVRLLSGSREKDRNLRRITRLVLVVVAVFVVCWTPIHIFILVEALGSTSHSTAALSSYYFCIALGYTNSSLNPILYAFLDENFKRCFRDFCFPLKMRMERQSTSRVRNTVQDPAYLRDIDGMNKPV
Chain of Delta-type opioid receptor (P41143 whole entry): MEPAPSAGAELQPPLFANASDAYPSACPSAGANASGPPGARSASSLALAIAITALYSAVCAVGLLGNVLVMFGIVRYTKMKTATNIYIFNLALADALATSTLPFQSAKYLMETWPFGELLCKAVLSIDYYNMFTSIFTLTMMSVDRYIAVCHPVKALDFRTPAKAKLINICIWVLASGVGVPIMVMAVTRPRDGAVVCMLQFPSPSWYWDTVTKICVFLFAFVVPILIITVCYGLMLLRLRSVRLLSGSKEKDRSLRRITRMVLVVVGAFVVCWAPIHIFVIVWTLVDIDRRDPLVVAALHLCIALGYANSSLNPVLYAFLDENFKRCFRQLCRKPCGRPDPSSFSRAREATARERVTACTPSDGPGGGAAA

| IC50 (Mu-type opioid receptor) | IC50 [3] | IC50 [4] | Compound | IC50 (Nociceptin receptor [1]) | IC50 (Nociceptin receptor [2]) | Stability (Liver microsomes) |
| --- | --- | --- | --- | --- | --- | --- |
| – | – | – | CCC(CC)Sc1nc2cc(C#N)c(N3CCNCC3)cc2[nH]1 | 15 nM | 78 nM | – |
| – | – | – | Fc1cc2nc(SCc3c(Cl)cccc3Cl)[nH]c2cc1N1CCNCC1 | 55 nM | 2700 nM | – |
| 3100 nM | 60 nM | – | CC(C)Sc1nc2cc(Cl)c(N3CCN(CCO)CC3)cc2[nH]1 | 120 nM | – | – |
| – | – | – | Fc1cc2nc(SCc3cccc(Cl)c3Cl)[nH]c2cc1N1CCNCC1 | 6 nM | 140 nM | – |
| – | – | – | Cc1ccc(CSc2nc3cc(F)c(N4CCNCC4)cc3[nH]2)cc1 | 31 nM | – | – |
| 4400 nM | 120 nM | – | CC(C)(C)Sc1nc2cc(Cl)c(N3CCN(CCO)CC3)cc2[nH]1 | 17 nM | 21 nM | – |
| 1400 nM | 88 nM | – | CC1(Sc2nc3cc(Cl)c(N4CCN(CCO)CC4)cc3[nH]2)CCCCC1 | 1.8 nM | 1.8 nM | – |
| – | – | – | CCC(CC)Sc1nc2cc(F)c(N3CCNCC3)cc2[nH]1 | 4.7 nM | 690 nM | – |
| – | – | – | Cc1ccccc1CSc1nc2cc(F)c(N3CCNCC3)cc2[nH]1 | 78 nM | 1700 nM | – |
| – | – | – | Fc1ccc(CSc2nc3cc(F)c(N4CCN(CC5CCCCCCC5)CC4)cc3[nH]2)cc1 | > 10000 nM | – | – |
| – | – | – | Fc1cc2nc(SCc3ccccc3)[nH]c2cc1N1CCNCC1 | 140 nM | – | – |
| – | – | – | O=S(=O)(Cc1cccc(Cl)c1Cl)c1nc2cc(F)c(N3CCNCC3)cc2[nH]1 | 240 nM | – | – |
| – | – | – | [O-][S+](Cc1cccc(Cl)c1Cl)c1nc2cc(F)c(N3CCNCC3)cc2[nH]1 (centres undefined) | 2900 nM | – | – |
| 3100 nM | 60 nM | > 1000 nM | CCC(CC)Sc1nc2cc(Cl)c(N3CCN(CCO)CC3)cc2[nH]1 | 9.7 nM | 3.3 nM | 51% |
| – | – | – | CCC(CC)Sc1nc2cc(Cl)c(N3CCN(CC)CC3)cc2[nH]1 | 10 nM | 3.9 nM | 31% |
| 2800 nM | 170 nM | > 1000 nM | CCC(C)(CC)Sc1nc2cc(Cl)c(N3CCN(CCO)CC3)cc2[nH]1 | 1.2 nM | 0.66 nM | – |
| – | – | – | CN1CCN(c2cc3[nH]c(SCc4ccc(F)cc4)nc3cc2F)CC1 | 910 nM | – | – |
| – | – | – | Fc1ccc(CSc2nc3cc(F)c(N4CCNCC4)cc3[nH]2)cc1 | 63 nM | – | – |
| – | – | – | CCC(CC)Sc1nc2ccc(N3CCNCC3)cc2[nH]1 | 320 nM | – | – |
| – | – | – | Fc1cc2nc(SCc3ccccc3Cl)[nH]c2cc1N1CCNCC1 | 23 nM | 380 nM | – |
| – | – | – | Fc1ccc(CSc2nc3cc(F)c(N4CCN(Cc5ccccc5)CC4)cc3[nH]2)cc1 | 8200 nM | – | – |
| 520 nM | 31 nM | – | OCCN1CCN(c2cc3[nH]c(SC4CCCCC4)nc3cc2Cl)CC1 | 20 nM | 20 nM | – |
| – | – | – | CCC(CC)Sc1nc2cc(C(C)=O)c(N3CCNCC3)cc2[nH]1 | 3100 nM | – | – |
| – | – | – | Fc1cc2nc(SCC3CCCCC3)[nH]c2cc1N1CCNCC1 | 17 nM | 930 nM | – |
| – | – | – | Cc1cccc(CSc2nc3cc(F)c(N4CCNCC4)cc3[nH]2)c1 | 180 nM | – | – |
| 3500 nM | 160 nM | – | CCC(C)(C)Sc1nc2cc(Cl)c(N3CCN(CCO)CC3)cc2[nH]1 | 5.6 nM | 2.5 nM | – |
| – | – | – | CSc1nc2cc(F)c(N3CCNCC3)cc2[nH]1 | 2900 nM | – | – |
